# Results: ChEMBL document CHEMBL5338815 (J Med Chem, 2023)
# How the values were obtained:
# [1] = Toxicity in Balb/c mouse xenografted with human PANC-1 cells assessed as body weight change at 2 mg/kg, ip treated for 22 days relative to control; type: organism-based; conditions: in vivo, 528 h, time 22 day
# PANC-1 = test: Antiproliferative activity against human PANC-1 cells assessed as cell viability measured after 24 hrs by CCK-8 assay; type: functional, cell-based; conditions: PANC-1, 24 h
# [2] = Metabolic stability in mouse liver microsomes assessed as half life at 0.1 uM measured upto 60 mins by LC-MS/MS analysis; type: ADME, Microsome
# [3] = AUC (0 to t) in ICR mouse at 2 mg/kg, ip measured upto 24 hrs by LC-MS/MS analysis; type: ADME, organism-based; design: dose 2 mg/kg, time < 24 hrs, route ip; conditions: in vivo
# [4] = target: T1, Histone-lysine N-methyltransferase EHMT2 (Homo sapiens, UniProt Q96KQ7); test: Inhibition of G9a (unknown origin) by AlphaLISA assay
# T1 sequence (Q96KQ7 whole entry): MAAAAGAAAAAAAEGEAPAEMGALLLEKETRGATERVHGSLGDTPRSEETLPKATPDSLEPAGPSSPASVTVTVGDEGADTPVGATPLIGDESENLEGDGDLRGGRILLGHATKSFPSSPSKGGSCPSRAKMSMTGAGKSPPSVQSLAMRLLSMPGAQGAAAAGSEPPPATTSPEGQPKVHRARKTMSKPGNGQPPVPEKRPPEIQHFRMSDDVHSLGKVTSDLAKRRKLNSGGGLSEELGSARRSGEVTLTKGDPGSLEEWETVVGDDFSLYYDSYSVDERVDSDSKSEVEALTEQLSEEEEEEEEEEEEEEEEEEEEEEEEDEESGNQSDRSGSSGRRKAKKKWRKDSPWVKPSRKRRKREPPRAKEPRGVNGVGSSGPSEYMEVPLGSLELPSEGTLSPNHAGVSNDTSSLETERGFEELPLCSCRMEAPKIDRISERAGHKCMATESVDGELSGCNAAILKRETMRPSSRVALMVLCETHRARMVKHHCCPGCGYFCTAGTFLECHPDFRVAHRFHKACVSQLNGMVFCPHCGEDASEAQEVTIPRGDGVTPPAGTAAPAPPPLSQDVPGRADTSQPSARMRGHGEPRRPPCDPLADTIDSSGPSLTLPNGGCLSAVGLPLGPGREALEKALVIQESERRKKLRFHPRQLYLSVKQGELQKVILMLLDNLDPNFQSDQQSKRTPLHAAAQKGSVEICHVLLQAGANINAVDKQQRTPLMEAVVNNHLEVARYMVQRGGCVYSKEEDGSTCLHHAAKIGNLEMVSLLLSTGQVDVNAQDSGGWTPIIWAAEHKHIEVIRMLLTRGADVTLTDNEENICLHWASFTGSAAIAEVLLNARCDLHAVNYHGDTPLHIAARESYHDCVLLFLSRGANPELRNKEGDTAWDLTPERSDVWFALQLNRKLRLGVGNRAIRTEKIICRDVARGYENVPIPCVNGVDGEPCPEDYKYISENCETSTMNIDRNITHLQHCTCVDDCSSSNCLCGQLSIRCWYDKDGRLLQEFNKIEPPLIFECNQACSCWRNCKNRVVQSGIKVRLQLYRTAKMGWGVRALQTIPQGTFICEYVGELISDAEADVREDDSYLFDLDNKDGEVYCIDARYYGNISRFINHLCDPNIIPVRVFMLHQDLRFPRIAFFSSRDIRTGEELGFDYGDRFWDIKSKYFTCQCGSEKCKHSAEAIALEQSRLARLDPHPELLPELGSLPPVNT
# [5] = AUC (0 to infinity) in ICR mouse at 2 mg/kg, ip measured upto 24 hrs by LC-MS/MS analysis; type: ADME, organism-based; design: dose 2 mg/kg, time < 24 hrs, route ip; conditions: in vivo
# [6] = target: T2, Histone-lysine N-methyltransferase EHMT2 (Homo sapiens) (UniProt Q96KQ7); test: Covalent inhibition of recombinant G9a (unknown origin) assessed as adduct formation intensity by measuring mass after 12 hrs by mass spectrometric analysis
# T2 sequence (whole entry): T1 sequence (Q96KQ7 whole entry)
# [7] = target: T3, Histone-lysine N-methyltransferase EHMT1 (Homo sapiens, UniProt Q9H9B1); test: Inhibition of GLP (unknown origin) by AlphaLISA assay
# T3 sequence (Q9H9B1 whole entry): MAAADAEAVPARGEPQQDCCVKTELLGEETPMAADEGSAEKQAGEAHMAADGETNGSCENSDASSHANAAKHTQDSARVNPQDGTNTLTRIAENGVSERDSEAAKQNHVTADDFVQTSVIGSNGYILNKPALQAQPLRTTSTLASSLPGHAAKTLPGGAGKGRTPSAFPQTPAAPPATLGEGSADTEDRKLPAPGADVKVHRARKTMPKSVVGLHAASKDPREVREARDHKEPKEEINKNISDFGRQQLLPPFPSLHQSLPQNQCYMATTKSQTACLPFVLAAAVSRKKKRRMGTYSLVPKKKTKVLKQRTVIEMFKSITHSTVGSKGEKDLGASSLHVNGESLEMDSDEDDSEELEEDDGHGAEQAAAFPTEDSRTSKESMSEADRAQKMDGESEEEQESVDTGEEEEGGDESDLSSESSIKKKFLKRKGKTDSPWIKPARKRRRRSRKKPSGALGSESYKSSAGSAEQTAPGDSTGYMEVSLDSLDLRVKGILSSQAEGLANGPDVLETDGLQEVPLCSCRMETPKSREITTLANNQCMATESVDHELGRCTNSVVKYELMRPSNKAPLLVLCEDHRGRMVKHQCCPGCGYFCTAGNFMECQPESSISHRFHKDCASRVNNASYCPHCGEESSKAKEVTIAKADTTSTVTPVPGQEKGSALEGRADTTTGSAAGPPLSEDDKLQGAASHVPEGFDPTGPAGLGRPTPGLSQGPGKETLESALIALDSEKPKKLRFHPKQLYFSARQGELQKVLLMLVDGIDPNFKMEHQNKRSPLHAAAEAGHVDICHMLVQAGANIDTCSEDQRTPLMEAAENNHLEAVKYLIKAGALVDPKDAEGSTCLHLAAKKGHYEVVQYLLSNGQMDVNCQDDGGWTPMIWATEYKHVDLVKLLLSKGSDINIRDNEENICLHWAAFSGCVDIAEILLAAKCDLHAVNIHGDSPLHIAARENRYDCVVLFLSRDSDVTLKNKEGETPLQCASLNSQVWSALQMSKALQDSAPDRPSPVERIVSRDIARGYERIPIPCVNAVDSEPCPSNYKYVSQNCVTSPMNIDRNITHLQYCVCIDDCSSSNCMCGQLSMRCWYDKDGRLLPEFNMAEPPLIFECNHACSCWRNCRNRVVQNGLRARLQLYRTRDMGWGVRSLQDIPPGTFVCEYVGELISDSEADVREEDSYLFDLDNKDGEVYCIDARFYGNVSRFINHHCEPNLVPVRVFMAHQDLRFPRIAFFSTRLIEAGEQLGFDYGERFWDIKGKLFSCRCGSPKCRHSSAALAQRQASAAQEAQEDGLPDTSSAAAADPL
# [8] = target: T4, Histone-lysine N-methyltransferase EHMT1 (Homo sapiens) (UniProt Q9H9B1); test: Covalent inhibition of recombinant GLP (unknown origin) assessed as adduct formation intensity by mass spectrometric analysis; conditions: time <= 16.0 hrs, TDE = time-dependent effect
# T4 sequence (whole entry): T3 sequence (Q9H9B1 whole entry)
compound,measurement,setting,value
C=CC(=O)N(C)c1nc(NC2CCN(C)CC2)c2cc(OC)c(OCCCN3CCCC3)cc2n1,Activity,[1],Non-Toxic
same,IC50,PANC-1,2680 nM
same,half-life at 0.1 µM,[2],1.19 h
same,AUC(0-t) at 24 h,[3],208 ng·h/mL
same,IC50,[4],8.5 nM
same,AUC(0-inf),[5],214 ng·h/mL
same,Activity,[6],60700 Da
same,IC50,[7],5 nM
same,inhibition,[8],Tde
